According to article PMC8632988, “Inhibition of SYK and cSrc kinases can protect bone and cartilage in preclinical models of osteoarthritis and rheumatoid arthritis” (Scientific Reports, 2021):
Values joined by “and” are separate entries in the source; they are usually repeats but may differ in a detail not shown here. Equal values may be shown once.

Assays:
[1] = molecular target: T1, SYK (Homo sapiens, UniProt P43405); assay: SYK inhibition radiometric assay; assay type: biochemical; parameters: 6xHis; GST; purchased EMD Millipore Corporation (UK), assay service; host or cells: Sf21
Method: Radiometric assay was performed at EMD Millipore Corporation (UK) by measuring the extent of substrate phosphorylation by 6xHis-SYK (expressed in Sf21 cells) using the standard protocol.

[2] = test system: B cells in human whole blood; assay: B-cell activation in human whole blood; assay type: cell-based; conditions: anti-IgD stimulation, 16 h, read-out: IC50, BCR-dependent (anti-IgD) activation of B cells
Method: The whole blood assay was performed at N. N. Blokhin National Medical Research Center of Oncology (NMRCO), Russia and approved by NMRCO ethics committee. Informed consent was obtained from all subjects. Red blood cells were lysed by incubation with NH4Cl buffer (0.8% NH4Cl and 0.1% EDTA in distilled water) for 5 min at 37 °C and were precipitated by centrifugation (1500 rpm). The precipitates were resuspended in RPMI-1640 with 10% human serum and 2 mM L-glutamine, after that the cells were again precipitated by analogous centrifugation and resuspended in RPMI-1640. […] Blood was then stained directly with PE-conjugated anti-CD69 (dilution 1:10) and APC-conjugated anti-CD19 (dilution 1:20) antibodies for 20 min at 4 °C. After that cells were precipitated by centrifugation (1500 rpm, 4 °C) and washed twice with phosphate-buffered saline (PBS). The cells were resuspended in PBS containing 1% BSA and subjected to flow cytometry on BD FACS Canto II (BD Biosciences, USA). The number of active cells was estimated as a ratio of CD69-positive cells bearing a marker of CD19 cells, or as a mean fluorescence intensity (MFI) of CD69 + cells after gating on the CD19-positive cells. For dose–response curve see Fig. S2.

[3] = molecular target: T1, SYK; assay: SYK inhibition luminescent assay; assay type: biochemical; parameters: 6xHis; made in house; host or cells: Sf9
Method: Luminescent assay was performed at A. N. Bakh Institute of Biochemistry (Moscow, Russia). Recombinant 6xHis-SYK kinase (expressed in Sf9 cells) was obtained as described previously. […] After incubation (20 min) Kinase-Glo reagent (Promega) was added. The luminescence was detected using the Fusion Universal Microplate Analyzer (PerkinElmer USA).

[4] = test system: Wistar rats, MIA osteoarthritis model; assay: Monosodium iodoacetate induced osteoarthritis in rats; assay type: in vivo, rat
Method: Monosodium iodoacetate (MIA) osteoarthritis model was performed at Pharmenterprises, Russia according to the known procedure[32] and approved by Ethics Committee of Pharmenterprises. Male 10 week old Wistar rats were divided into eight groups: negative control (#1), positive control (#2) and six treatment groups (#3–8), ten rats in each group. Group #1 was left intact while rats in groups #2–8 were anesthetized on the day 0 with intraperitoneal injection of Zoletil and Xylazine mixture and given a single intra-articular injection of MIA through the infrapatellar ligament of the right knee. Rats were treated as follows: (#1, #2) 0.5% solution of methylcellulose in PBS (pH = 3) as vehicle control, (#3, #5) 100 mg/kg MT-SYK-03, (#4, #6) 500 mg/kg MT-SYK-03, (#7) 50 mg/kg nalgesin and (#8) 0.1 mg/kg zoledronic acid. Rats in groups #1–4 received treatment intragastrically QD, 25 and 1 h before the MIA injection, and then daily until the end of the study on the day 28. Rats in groups #5–6 received treatment intragastrically QD from the day 7 until the end of the study. Rats in group #7 were treated QD starting on the day 14 and until the end of the study. Finally, rats in group #8 were treated subcutaneously immediately after the MIA injection and then every third day until the study end. Disease progression was monitored by measuring mechanical hyperalgesia, mechanical allodynia and grip strength of hind paws on the days 14, 21, and 28, just before the treatment, and 1, 3, 6 h after it.

[5] = MT-SYK-03 100 mg/kg, 7–28 days QD, 14 day, 1 hour after admin.
[6] = MT-SYK-03 100 mg/kg, 7–28 days QD, 14 day, 3 hours after admin.
[7] = MT-SYK-03 100 mg/kg, 7–28 days QD, 21 day, 1 hour after admin.
[8] = MT-SYK-03 100 mg/kg, 7–28 days QD, 21 day, 3 hours after admin.
[9] = MT-SYK-03 100 mg/kg, 7–28 days QD, 28 day, 1 hour after admin.
[10] = MT-SYK-03 100 mg/kg, 7–28 days QD, 28 day, 3 hours after admin.
[11] = MT-SYK-03 100 mg/kg, −1–28 days QD, 14 day, 1 hour after admin.
[12] = MT-SYK-03 100 mg/kg, −1–28 days QD, 14 day, 3 hours after admin.
[13] = MT-SYK-03 100 mg/kg, −1–28 days QD, 21 day, 1 hour after admin.
[14] = MT-SYK-03 100 mg/kg, −1–28 days QD, 21 day, 3 hours after admin.
[15] = MT-SYK-03 100 mg/kg, −1–28 days QD, 28 day, 1 hour after admin.
[16] = MT-SYK-03 100 mg/kg, −1–28 days QD, 28 day, 3 hours after admin.
[17] = MT-SYK-03 500 mg/kg, 7–28 days QD, 14 day, 1 hour after admin.
[18] = MT-SYK-03 500 mg/kg, 7–28 days QD, 14 day, 3 hours after admin.
[19] = MT-SYK-03 500 mg/kg, 7–28 days QD, 21 day, 1 hour after admin.
[20] = MT-SYK-03 500 mg/kg, 7–28 days QD, 21 day, 3 hours after admin.
[21] = MT-SYK-03 500 mg/kg, 7–28 days QD, 28 day, 1 hour after admin.
[22] = MT-SYK-03 500 mg/kg, 7–28 days QD, 28 day, 3 hours after admin.
[23] = MT-SYK-03 500 mg/kg, −1–28 days QD, 14 day, 1 hour after admin.
[24] = MT-SYK-03 500 mg/kg, −1–28 days QD, 14 day, 3 hours after admin.
[25] = MT-SYK-03 500 mg/kg, −1–28 days QD, 21 day, 1 hour after admin.
[26] = MT-SYK-03 500 mg/kg, −1–28 days QD, 21 day, 3 hours after admin.
[27] = MT-SYK-03 500 mg/kg, −1–28 days QD, 28 day, 1 hour after admin.
[28] = MT-SYK-03 500 mg/kg, −1–28 days QD, 28 day, 3 hours after admin.

## COc1cc(Nc2ncnc(Nc3cc4c(cn3)NC(=O)C(C)(C)O4)n2)cc(OC)c1OC [MT-SYK-03]
[1]
  IC50: 40 ± 4 nM
[2]
  IC50: 550 nM
[3]; read-out: IC50, luminescent assay
  IC50: 23 nM
[3]; span of luminescent and radiometric assays, read-out: IC50 (SYK), as given in Figure 1c
  IC50: 14 nM and 23 to 40 nM
[4]; [5]
  hind paws grip strength: 70.1 ± 10.8 % from the initial one
  mechanical allodynia pain threshold: 70.2±7.7 % from the initial one
  mechanical hyperalgesia: 51.9 ± 4.1 & % from the initial one
[4]; [6]
  hind paws grip strength: 58.9 ± 7.8 & % from the initial one
  mechanical allodynia pain threshold: 78.7±10.6 % from the initial one
  mechanical hyperalgesia: 50.6 ± 5.6 & % from the initial one
[4]; [7]
  hind paws grip strength: 76.3 ± 6.2 & % from the initial one
  mechanical allodynia pain threshold: 75.3±15.4 % from the initial one
  mechanical hyperalgesia: 85.1 ± 5 % from the initial one
[4]; [8]
  hind paws grip strength: 62.56 ± 7.58 % from the initial one
  mechanical allodynia pain threshold: 73.1±7.9 % from the initial one
  mechanical hyperalgesia: 73.5 ± 6.9 & % from the initial one
[4]; [9]
  hind paws grip strength: 74.4 ± 13.0 % from the initial one
  mechanical allodynia pain threshold: 61.7±5.8 % from the initial one
  mechanical hyperalgesia: 67.7 ± 9.8 & % from the initial one
[4]; [10]
  hind paws grip strength: 58.1 ± 10.0 % from the initial one
  mechanical allodynia pain threshold: 78.3±8 % from the initial one
  mechanical hyperalgesia: 71.24 ± 7.99 % from the initial one
[4]; [11]
  hind paws grip strength: 56.3 ± 5.2 & % from the initial one
  mechanical allodynia pain threshold: 136.3±22.5 & % from the initial one
  mechanical hyperalgesia: 73.5 ± 10.5 & % from the initial one
[4]; [12]
  hind paws grip strength: 58.7 ± 8.2 & % from the initial one
  mechanical allodynia pain threshold: 136.7±29.2 & % from the initial one
  mechanical hyperalgesia: 63.9 ± 7.5 & % from the initial one
[4]; [13]
  hind paws grip strength: 76.5 ± 4.5 & % from the initial one
  mechanical allodynia pain threshold: 107.7±12.8 & % from the initial one
  mechanical hyperalgesia: 74.4 ± 3.3 &# % from the initial one
[4]; [14]
  hind paws grip strength: 72.69 ± 9.18 % from the initial one
  mechanical allodynia pain threshold: 95.5±4.7 & % from the initial one
  mechanical hyperalgesia: 80.5 ± 10.3 % from the initial one
[4]; [15]
  hind paws grip strength: 90.5 ± 14.0 % from the initial one
  mechanical allodynia pain threshold: 135.8±27.6 & % from the initial one
  mechanical hyperalgesia: 65.1 ± 7.4 & % from the initial one
[4]; [16]
  hind paws grip strength: 88.6 ± 18.5 % from the initial one
  mechanical allodynia pain threshold: 110.3±16.3 % from the initial one
  mechanical hyperalgesia: 67.38 ± 9.74 & % from the initial one
[4]; [17]
  hind paws grip strength: 68.2 ± 11.3 % from the initial one
  mechanical allodynia pain threshold: 75.7±3.6 % from the initial one
  mechanical hyperalgesia: 51.1 ± 5.4 & % from the initial one
[4]; [18]
  hind paws grip strength: 78.6 ± 12.1 % from the initial one
  mechanical allodynia pain threshold: 82.7±12.8 % from the initial one
  mechanical hyperalgesia: 77.5 ± 6.9 & % from the initial one
[4]; [19]
  hind paws grip strength: 67.7 ± 7.9 & % from the initial one
  mechanical allodynia pain threshold: 74.5±13.9 % from the initial one
  mechanical hyperalgesia: 56 ± 7.2 & % from the initial one
[4]; [20]
  hind paws grip strength: 68.23 ± 6.84 % from the initial one
  mechanical allodynia pain threshold: 78.9±6.8 % from the initial one
  mechanical hyperalgesia: 58.5 ± 7.1 & % from the initial one
[4]; [21]
  hind paws grip strength: 82.8 ± 9.5 % from the initial one
  mechanical allodynia pain threshold: 198.4±40.1 & % from the initial one
  mechanical hyperalgesia: 75 ± 6.1 & % from the initial one
[4]; [22]
  hind paws grip strength: 79.8 ± 4.3 % from the initial one
  mechanical allodynia pain threshold: 161.1±30.5 & % from the initial one
  mechanical hyperalgesia: 78.02 ± 9.37 % from the initial one
[4]; [23]
  hind paws grip strength: 62.8 ± 9.9 % from the initial one
  mechanical allodynia pain threshold: 113.9±9.7 & % from the initial one
  mechanical hyperalgesia: 53.8 ± 4.4 & % from the initial one
[4]; [24]
  hind paws grip strength: 70.3 ± 7.0 & % from the initial one
  mechanical allodynia pain threshold: 111.1±17.7 & % from the initial one
  mechanical hyperalgesia: 52.5 ± 3.3 & % from the initial one
[4]; [25]
  hind paws grip strength: 89.6 ± 8.7 % from the initial one
  mechanical allodynia pain threshold: 105.8±13 & % from the initial one
  mechanical hyperalgesia: 75.4 ± 6.4 % from the initial one
[4]; [26]
  hind paws grip strength: 76.56 ± 4.83 % from the initial one
  mechanical allodynia pain threshold: 98.1±5.7 & % from the initial one
  mechanical hyperalgesia: 64.7 ± 4.3 & % from the initial one
[4]; [27]
  hind paws grip strength: 86.3 ± 8.3 % from the initial one
  mechanical allodynia pain threshold: 106.7±12 & % from the initial one
  mechanical hyperalgesia: 53.5 ± 3.8 & % from the initial one
[4]; [28]
  hind paws grip strength: 82.3 ± 12.7 % from the initial one
  mechanical allodynia pain threshold: 99.2±5.5 & % from the initial one
  mechanical hyperalgesia: 61.04 ± 1.81 & % from the initial one
[4]; rat MIA, days 14, 21, 28
  hind paws grip strength: trend toward restoration of hind paws grip strength
[4]; rat MIA, prophylactic administration, 100 and 500 mg/kg
  Mechanical hyperalgesia pain threshold: statistically significant increase of pain thresholds for both doses from day 14
[4]; rat MIA, prophylactic treatment regimen
  mechanical allodynia pain threshold: on day 14 pain threshold was elevated in all measurements
[4]; rat MIA, therapeutic treatment regimen
  Mechanical hyperalgesia pain threshold: statistically significant improvement appeared only on day 28 for higher dose
[4]; rat MIA, treatment regimen
  mechanical allodynia pain threshold: statistically significant on day 28 and only in the higher dose
